Columns and labels:
[1] = test system: ulcerative colitis; test: A case of ulcerative colitis improved by hydrogen inhalation (single patient case report); format: in vivo, human
Protocol: From around January 2018, the patient was taking a therapeutic agent for ulcerative colitis but was distressed because the disease was not cured with cyclic improvement and worsening. Additionally, the patient became depressed and gloomy, suffering insomnia and weight loss, because of the prolonged symptoms of ulcerative colitis. […] The patient drank two 500 mL PET bottles of hydrogen water per day.

[2] = room temperature, normal pressure; also printed as 1.6 mg/L; cited from earlier work
[3] = known; versus H2; cited from earlier work
[4] = around June 9, six days after initiation of hydrogen gas inhalation plus hydrogen water

Structure (SMILES) | general condition [1, 4] | sleep condition [1, 4] | body weight ([1]; by Aug. 22, 2019) | hemorrhage ([1]; by Aug. 22, 2019 (end of inhalation therapy)) | hemorrhage ([1]; by Jul. 31, 2019) | frequency of defecation and patient's vigor ([1]; by Jun. 17, 2019) | stool consistency (had been watery) ([1]; by Jun. 17, 2019) | hemorrhage during defecation ([1]; by Jun. 17, 2019 (inhalation started Jun. 3, 2019)) | endoscopy: hemorrhage in the rectum (had been filled with blood) ([1]; endoscopy on Sep. 25, 2019) | endoscopy: wall of the small and large intestines ([1]; endoscopy on Sep. 25, 2019) | endoscopy: several polyps found in the stomach ([1]; endoscopy on Sep. 25, 2019, inhalation of hydrogen gas and drinking of hydrogen water) | volume of melena during defecation ([1]; person, ulcerative colitis, around June 9, six days after initiation of hydrogen gas inhalation (approx. 5.0%, 1-3 h/day) plus hydrogen water 7 ppm, two 500 mL bottles/day) | concentration of hydrogen dissolved in water [2] | superoxide eliminating effect compared with H2 [3]
[HH] [hydrogen gas, molecular hydrogen] | recovered | improved | increased to the healthy weight before the onset of the disease | no hemorrhage was found | no hemorrhage was found except that blood was attached to the stool only on the day after the patient had drunk alcohol | returned to the levels before the onset of the disease | became solid | further decreased | no hemorrhage in the rectum | recovered completely | disappeared | began to decrease | approximately 1.6 ppm | 
[2H][2H] [D2, deuterium] |  |  |  |  |  |  |  |  |  |  |  |  |  | stronger

Reference: patent publication US20210220392A1, “MOLECULAR HYDROGEN-CONTAINING COMPOSITION FOR PREVENTION AND/OR IMPROVEMENT OF INFLAMMATORY BOWEL DISEASE” (MiZ Company Limited, priority 2020, published 2021)
